Assay [1] deals with HeLa cells. Description: Cell cycle analysis (PI, flow cytometry), HeLa. The class given is cell-based, human. How it is done:
MCF7, HeLa, and HT-29 cell cycle analyses were performed by quantifying the DNA content by flow cytometry. Cells in the exponential growth phase at 2 × 10^4 cells/mL were seeded in 24-well plates (1 ml/well). After 24 h incubation, cells were treated with compound 25 at 87.5 or 175 nM. After 24, 48, and 72 h treatments, live and dead cells were collected and fixed in ice-cold ethanol:PBS (7:3) and stored at 4 °C for later use. Cells were rehydrated with phosphate-buffered saline (PBS), treated with 100 µg/mL RNase A (Sigma-Aldrich Co., St. Louis, MO, USA), and stained overnight in darkness at room temperature with 50 µg/mL propidium iodide (PI) (Sigma-Aldrich Co.). Cell cycle profiles were then analysed by flow cytometry using BD Accuri™ C6 Plus Flow Cytometer (BD Biosciences, San José, CA, USA). Data were analysed with BD Accuri™ C6 Software (version 1.0.264.21, BD Biosciences, San José, CA, USA) and compared to control cells treated with 0.5% (v/v) DMSO. Compounds were dissolved in DMSO and the final solvent concentrations never exceeded 0.5% (v/v).

Assay [2] deals with HT-29 (human colon carcinoma) cells. Description: Cell growth assay (XTT), HT-29, alone or with verapamil. The class given is cell-based.
In assay [3] the test system is p-62 in MCF7 cells. Description: Western blot of autophagosome marker p-62, MCF7. The class given is cell-based, human. The conditions noted are these: MCF7, 175 nM, 24 h. How it is done:
MCF7, HeLa and HT-29 cells in an exponential growth phase at 2 × 10^4 cells/mL were seeded in Petri dishes (20 × 100 mm) (10 ml/dish). After 24 h incubation, cells were treated with compound 25 at 175 nM, and the levels of p-62 in treated and untreated cells were measured at 24 h post-treatment. The culture medium was removed, cells were washed with PBS and resuspended in 1 ml lysis buffer (50 mM Tris, 130 mM NaCl, 1 mM EDTA, 1% Triton X-100) containing protease inhibitors (Complete, Roche Applied Science, Indianapolis). Cells were harvested and incubated with lysis buffer for 30 min at 4 °C in constant agitation. Cell extracts were centrifuged at 12,000 rpm for 15 min at 4 °C and the supernatants were stored at −80 °C. Protein concentrations were determined using Bradford (BioRad, Hercules, CA) method taking BSA (Bovine Serum Albumin) as standard. Protein extracts were used for electrophoresis mixing with loading buffer (4% SDS, 0.05% bromophenol blue, 20% glycerine, 2% β-mercaptoethanol, and Tris 100 mM at pH 6.8). Proteins were then denatured at 95 °C for 7 min. Protein samples (50 μg/lane) were subjected to electrophoresis on 8% acrylamide gel and SDS-PAGE running buffer at constant voltage (140 V). Then, acrylamide gels were transferred to a PVDF membrane (Merck Millipore, Burlington, Massachusetts, USA) using a semi-dry transfer system for 30 min at constant voltage (15 V). […]

Structures are written as SMILES. Like-named read-outs stand apart in the source and are kept apart here.

Usually IC50 stands for the concentration at which inhibition is half-maximal.

As for `COc1ccc(S(=O)(=O)N(CC#N)c2cc(OC)c(Br)cc2OC)cc1` [Compound 25, N-(4-bromo-2,5-dimethoxyphenyl)-N-(cyanomethyl)-4-methoxybenzenesulphonamide], the “Cells at G2/M phase” value is on record as 82% in assay [1] (87.5 nM, 24 h); 54% in assay [1] (87.5 nM, 48 h); 41% in assay [1] (87.5 nM, 72 h); 86% in assay [1] (175 nM, 24 h); 48% in assay [1] (175 nM, 48 h); 49% in assay [1] (175 nM, 72 h). The subG0/G1 population is recorded as 34% in assay [1] (87.5 nM, 48 h); 29% in assay [1] (175 nM, 48 h); 38% in assay [1] (72 h, one value printed for 87.5 and 175 nM). In addition, the IC50 in assay [2] (72 h, in the presence of Pgp/MDR1 inhibitor verapamil (10 µM), read-out: Antiproliferative activity IC50 HT-29 Verap) came to 85 nM; in assay [2] (Homo sapiens, HT-29, 72 h drug exposure, XTT, read-out: Antiproliferative activity IC50 HT-29), 97 nM. The p-62 levels entry in assay [3] is on record as “decay in p-62 levels”.

(Values after PMC8205030, “Methoxy and bromo scans on N-(5-methoxyphenyl) methoxybenzenesulphonamides reveal potent cytotoxic compounds, especially against the human breast adenocarcinoma MCF7 cell line” (Journal of Enzyme Inhibition and Medicinal Chemistry, 2021).)
